Results taken from patent publication US9115143B2, “Substituted indole derivatives as gamma secretase modulators” (Janssen Pharmaceuticals, Inc., priority 2011, dated 2015).
pIC50: −log10 of the molar value.

Columns and labels:
Aβ42 = test: Screening for γ-secretase-modulating activity: Aβ42 in supernatant of SKNBE2 cells carrying hAPP 695 wild type (Alphalisa); format: cell-based, human; conditions: overnight incubation, Alphalisa on supernatant
Summary of the method: (§1)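 SKNBE2 human neuroblastoma cells expressing wild-type hAPP 695 (10^4/well) were incubated overnight at 37 °C, 5% CO2 with compound at several concentrations. Supernatant Aβ42 and Aβtotal measured by AlphaLISA sandwich immunoassays; IC50 from 4-parameter fit of percent of untreated control versus log concentration.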

Aβtotal = test: Screening for γ-secretase-modulating activity: Aβtotal in supernatant of SKNBE2 cells carrying hAPP 695 wild type (Alphalisa); format: cell-based, human; conditions: overnight incubation, Alphalisa on supernatant
Summary of the method: as §1

[1] = SKNBE2 human neuroblastoma cells carrying hAPP 695 wild type
[2] = Homo sapiens, SKNBE2, SKNBE2 human neuroblastoma cells carrying hAPP 695 wild type

Compound	pIC50 (Aβ42; [1])	pIC50 (Aβtotal; [2])	melting point	pIC50 (Aβtotal; [1])	pIC50 (Aβ42; [2])
Cc1cc(F)ccc1C1OCCn2nc(-c3cc4cc(C#N)ccc4[nH]3)nc21 (single isomer, unassigned) [Compound 97, 2-[8-(4-fluoro-2-methylphenyl)-5,6-dihydro-8H-[1,2,4]triazolo[5,1-c][1,4]oxazin-2-yl]-1H-indole-5-carbonitrile]	6.66	< 5.00	255 °C	–	–
Cc1cc(F)ccc1C1OCCn2nc(-c3cc4cc(C#N)ccc4[nH]3)nc21 (single isomer, unassigned) [Compound 98, 2-[8-(4-fluoro-2-methylphenyl)-5,6-dihydro-8H-[1,2,4]triazolo[5,1-c][1,4]oxazin-2-yl]-1H-indole-5-carbonitrile]	5.26	–	253.5 °C	< 5.00	–
Cc1cn(-c2ccc3[nH]c(-c4nc5n(n4)CCOC5c4ccc(F)cc4C)cc3c2)cn1 (single isomer, unassigned) [Compound 109, 8-(4-fluoro-2-methylphenyl)-5,6-dihydro-2-[5-(4-methyl-1H-imidazol-1-yl)-1H-indol-2-yl]-8H-[1,2,4]triazolo[5,1-c][1,4]oxazine]	6.27	< 5.00	278.9 °C	–	–
Cc1cn(-c2ccc3[nH]c(-c4nc5n(n4)CCOC5c4ccc(F)cc4C)cc3c2)cn1 (single isomer, unassigned) [Compound 110, 8-(4-fluoro-2-methylphenyl)-5,6-dihydro-2-[5-(4-methyl-1H-imidazol-1-yl)-1H-indol-2-yl]-8H-[1,2,4]triazolo[5,1-c][1,4]oxazine]	7.44	–	278 °C	< 5.00	–
Cc1c(F)cccc1C1OCCn2nc(-c3cc4cc(C#N)ccc4[nH]3)nc21 (stereo not shown) [Compound 1, 2-[8-(3-fluoro-2-methylphenyl)-5,6-dihydro-8H-[1,2,4]triazolo[5,1-c][1,4]oxazin-2-yl]-1H-indole-5-carbonitrile]	–	< 5.00	225.2 °C	–	6.53
COc1ccccc1C1CCCn2nc(-c3cc4cc(C#N)ccc4[nH]3)nc21 (stereo not shown) [Compound 19, 2-[5,6,7,8-tetrahydro-8-(2-methoxyphenyl)[1,2,4]triazolo[1,5-a]pyridin-2-yl]-1H-indole-5-carbonitrile]	–	< 5.00	139.6 °C	–	6.18
N#Cc1ccc2[nH]c(-c3nc4n(n3)CCCC4c3cc(C(F)(F)F)ccc3F)cc2c1 (stereo not shown) [Compound 21, 2-[8-[2-fluoro-5-(trifluoromethyl)phenyl]-5,6,7,8-tetrahydro[1,2,4]triazolo[1,5-a]pyridin-2-yl]-1H-indole-5-carbonitrile]	–	< 5.00	184.3 °C	–	6.45
N#Cc1ccc2[nH]c(-c3nc4n(n3)CCCC4c3ccc(F)cc3C(F)(F)F)cc2c1 (stereo not shown) [Compound 22, 2-[8-[4-fluoro-2-(trifluoromethyl)phenyl]-5,6,7,8-tetrahydro[1,2,4]triazolo[1,5-a]pyridin-2-yl]-1H-indole-5-carbonitrile]	–	< 5.00	265 °C	–	6.86
COCc1ccccc1C1OCCn2cc(-c3cc4c(OC)c(C#N)ccc4[nH]3)nc21 (stereo not shown) [Compound 145, 2-[5,6-dihydro-8-[2-(methoxymethyl)phenyl]-8H-imidazo[2,1-c][1,4]oxazin-2-yl]-4-methoxy-1H-indole-5-carbonitrile]	6.96	–	–	< 5.00	–
COCc1ccccc1C1OCCn2cc(-c3cc4c(OC)c(C#N)ccc4[nH]3)nc21 (stereo not shown) [Compound 146, 2-[5,6-dihydro-8-[2-(methoxymethyl)phenyl]-8H-imidazo[2,1-c][1,4]oxazin-2-yl]-4-methoxy-1H-indole-5-carbonitrile]	5.21	–	–	< 5.00	–
COc1c(C#N)ccc2[nH]c(-c3cn4c(n3)C(c3cc(F)ccc3C)OCC4)cc12 (stereo not shown) [Compound 151, 2-[8-(5-fluoro-2-methylphenyl)-5,6-dihydro-8H-imidazo[2,1-c][1,4]oxazin-2-yl]-4-methoxy-1H-indole-5-carbonitrile]	7.27	< 5.00	–	–	–
COc1c(C#N)ccc2[nH]c(-c3cn4c(n3)C(c3c(F)cccc3C(F)(F)F)OCC4)cc12 (stereo not shown) [Compound 152, 2-[8-[2-fluoro-6-(trifluoromethyl)phenyl]-5,6-dihydro-8H-imidazo[2,1-c][1,4]oxazin-2-yl]-4-methoxy-1H-indole-5-carbonitrile]	5.42	–	–	< 5.00	–
COc1c(C#N)ccc2[nH]c(-c3cn4c(n3)C(c3cc(C(F)(F)F)ccc3F)OCC4)cc12 (stereo not shown) [Compound 165, 2-[8-[2-fluoro-5-(trifluoromethyl)phenyl]-5,6-dihydro-8H-imidazo[2,1-c][1,4]oxazin-2-yl]-4-methoxy-1H-indole-5-carbonitrile]	5.36	–	–	< 5.00	–
COCCOc1c(C#N)ccc2[nH]c(-c3cn4c(n3)C(c3ccc(F)cc3C)OCC4)cc12 (stereo not shown) [Compound 167, 2-[8-(4-fluoro-2-methylphenyl)-5,6-dihydro-8H-imidazo[2,1-c][1,4]oxazin-2-yl]-4-(2-methoxyethoxy)-1H-indole-5-carbonitrile]	–	< 5.00	–	–	6.59
Cc1cc(F)ccc1C1CCCn2nc(-c3nc4cc(-n5cncc5C)ccc4[nH]3)nc21 (stereo not shown) [Compound 177, 8-(4-fluoro-2-methylphenyl)-5,6,7,8-tetrahydro-2-[5-(5-methyl-1H-imidazol-1-yl)-1H-benzimidazol-2-yl]-[1,2,4]triazolo[1,5-a]pyridine]	–	< 5.00	–	–	5.60
Cc1cn(-c2ccc3[nH]c(-c4nc5n(n4)CCCC5c4ccc(F)cc4C)nc3c2)cn1 (stereo not shown) [Compound 179, 8-(4-fluoro-2-methylphenyl)-5,6,7,8-tetrahydro-2-[5-(4-methyl-1H-imidazol-1-yl)-1H-benzimidazol-2-yl]-[1,2,4]triazolo[1,5-a]pyridine]	6.39	< 5.00	–	–	–
COc1c(C#N)ccc2[nH]c(-c3cn4c(n3)COCC4(C)c3cc(C(F)(F)F)ccc3F)cc12 (stereo not shown) [Compound 183, 2-[5-[2-fluoro-5-(trifluoromethyl)phenyl]-5,6-dihydro-5-methyl-8H-imidazo[2,1-c][1,4]oxazin-2-yl]-4-methoxy-1H-indole-5-carbonitrile]	–	< 5.00	–	–	5.54
COc1c(C#N)ccc2[nH]c(-c3cn4c(n3)COCC4c3ccccc3)cc12 (stereo not shown) [Compound 184, 2-(5,6-dihydro-5-phenyl-8H-imidazo[2,1-c][1,4]oxazin-2-yl)-4-methoxy-1H-indole-5-carbonitrile]	–	5.27	–	–	5.51

The next lines start with the values.

pIC50 (Aβ42; [1])	pIC50 (Aβtotal; [2])	melting point	pIC50 (Aβtotal; [1])	pIC50 (Aβ42; [2])	Compound
7.10	< 5.00	–	–	–	COc1c(C#N)ccc2[nH]c(-c3nc4n(n3)CCOC4c3ccccc3Cl)cc12 (stereo not shown) [Compound 130, 2-[8-(2-chlorophenyl)-5,6-dihydro-8H-[1,2,4]triazolo[5,1-c][1,4]oxazin-2-yl]-4-methoxy-1H-indole-5-carbonitrile]
5.94	–	–	< 5.00	–	COc1c(C#N)ccc2[nH]c(-c3nc4n(n3)CCOC4c3ccccc3Cl)cc12 (stereo not shown) [Compound 140, 2-[8-(2-chlorophenyl)-5,6-dihydro-8H-[1,2,4]triazolo[5,1-c][1,4]oxazin-2-yl]-4-methoxy-1H-indole-5-carbonitrile]
6.73	< 5.00	–	–	–	COc1c(C#N)ccc2[nH]c(-c3cn4c(n3)C(c3ccc(F)c(Cl)c3)OCC4)cc12 (stereo not shown) [Compound 143, 2-[8-(3-chloro-4-fluorophenyl)-5,6-dihydro-8H-imidazo[2,1-c][1,4]oxazin-2-yl]-4-methoxy-1H-indole-5-carbonitrile]
6.67	< 5.00	–	–	–	COc1c(C#N)ccc2[nH]c(-c3nc4n(n3)CCOC4c3ccc(F)c(Cl)c3)cc12 (stereo not shown) [Compound 144, 2-[8-(3-chloro-4-fluorophenyl)-5,6-dihydro-8H-[1,2,4]triazolo[5,1-c][1,4]oxazin-2-yl]-4-methoxy-1H-indole-5-carbonitrile]
5.83	–	–	< 5.00	–	COc1c(C#N)ccc2[nH]c(-c3cn4c(n3)C(c3ccc(F)c(Cl)c3)OCC4)cc12 (stereo not shown) [Compound 155, 2-[8-(3-chloro-4-fluorophenyl)-5,6-dihydro-8H-imidazo[2,1-c][1,4]oxazin-2-yl]-4-methoxy-1H-indole-5-carbonitrile]
5.16	–	–	< 5.00	–	COc1c(C#N)ccc2[nH]c(-c3nc4n(n3)CCOC4c3c(F)cccc3C(F)(F)F)cc12 (stereo not shown) [Compound 162, 2-[8-[2-fluoro-6-(trifluoromethyl)phenyl]-5,6-dihydro-8H-[1,2,4]triazolo[5,1-c][1,4]oxazin-2-yl]-4-methoxy-1H-indole-5-carbonitrile]
7.28	–	–	< 5.00	–	COc1c(C#N)ccc2[nH]c(-c3nc4n(n3)CCOC4c3c(F)cccc3C(F)(F)F)cc12 (stereo not shown) [Compound 163, 2-[8-[2-fluoro-6-(trifluoromethyl)phenyl]-5,6-dihydro-8H-[1,2,4]triazolo[5,1-c][1,4]oxazin-2-yl]-4-methoxy-1H-indole-5-carbonitrile]
–	< 5.00	–	–	6.46	Cc1cc(F)ccc1C1OCCn2nc(-c3cc4c(OC(C)C)c(C#N)ccc4[nH]3)nc21 (stereo not shown) [Compound 166, 2-[8-(4-fluoro-2-methylphenyl)-5,6-dihydro-8H-[1,2,4]triazolo[5,1-c][1,4]oxazin-2-yl]-4-(1-methylethoxy)-1H-indole-5-carbonitrile]
–	< 5.00	–	–	6.61	Cc1cc(F)ccc1C1OCCn2nc(-c3cc4c(OCC(F)F)c(C#N)ccc4[nH]3)nc21 (stereo not shown) [Compound 168, 4-(2,2-difluoroethoxy)-2-[8-(4-fluoro-2-methylphenyl)-5,6-dihydro-8H-[1,2,4]triazolo[5,1-c][1,4]oxazin-2-yl]-1H-indole-5-carbonitrile]
–	< 5.00	–	–	6.82	CCOc1c(C#N)ccc2[nH]c(-c3nc4n(n3)CCOC4c3ccc(F)cc3C)cc12 (stereo not shown) [Compound 171, 4-ethoxy-2-[8-(4-fluoro-2-methylphenyl)-5,6-dihydro-8H-[1,2,4]triazolo[5,1-c][1,4]oxazin-2-yl]-1H-indole-5-carbonitrile]
